We go through 26 compounds from patent publication US9714232B2, “Substituted piperazine compounds and methods of use thereof” (Sunshine Lake Pharma Co., Ltd., priority 2013, dated 2017).

The target of test [1] is serotonin transporter in rat synaptosome (Rattus norvegicus (Rat), UniProt P31652). Nature of the test: Inhibitory effect on [3H]5-HT uptake in rat synaptosome. In kind it is biochemical. As to conditions: rat brain synaptosomes, 0.1 μCi [3H]5-HT, 37° C., 15 minutes. How it is done: The synaptosomes (150 μg) prepared from a rat brain were incubated at 37° C. for 15 minutes with 0.1 μCi [^3H]5-HT in the absence or presence of the test compound or the reference compound in a buffer solution containing 106.2 mM NaCl, 4.5 mM KCl, 2.25 mM MgSO4, 1.08 mM NaH2PO4, 22.5 mM NaHCO3, 9.9 mM glucose, 9 μM EGTA and 45 μM ascorbic acid (pH 7.4).
The basal control activity was determined by incubating the same mixture at 4° C. for 15 minutes in the presence of 10 μM imipramine to block the uptake of 5-HT, which was taken as the standard reference compound and tested in each experiment at several concentrations to obtain an inhibition curve.
Following the incubation, the samples were filtered rapidly under vacuum through glass fiber filters (GF/B, Packard) and rinsed twice with an ice-cold incubation buffer using a 96-sample cell harvester (Unifilter, Packard) to eliminate free [^3H]5-HT. The filters were dried and the retained radioactivity was measured in a scintillation counter (Topcount, Packard) using a scintillation cocktail (Microscint 0, Packard). The experimental results were expressed as a percent inhibition of the control uptake of [^3H]5-HT.
Inhibition of serotonin transporter in rat synaptosome was measured by the concentrations of [^3H]5-HT.

Test [2] concerns the target human 5-HT1A receptor (Homo sapiens (Human), UniProt P08908). Nature of the test: Affinity for human 5-HT1A receptor ([3H]8-OH-DPAT binding, HEK-293 cell homogenates). The following applies: 0.3 nM [3H]8-OH-DPAT, human HEK-293 cell homogenates, 22° C., 60 minutes; Ki from IC50 by ChengPrusoff equation. As to the method:
Human HEK-293 cell homogenates (36 μg protein) were incubated at 22° C. for 60 minutes with 0.3 nM [^3H]8-0H-DPAT (Perkin-Elmer) in the absence or presence of the test compound in a buffer solution containing 50 mM Tris-HCl (pH 7.4), 10 mM MgSO4, 0.5 mM EDTA and 2 μg/ml aprotinine.
The non-specific binding value was determined by incubating the same mixture in the presence of 10 μM 8-OH-DPAT, which was used as the standard reference compound and tested in each experiment at several concentrations to obtain a competition curve.
Following the incubation, the samples were filtered rapidly under vacuum through glass fiber filter (GF/B, Packard) presoaked with 0.3% PEI and rinsed several times with ice-cold 50 mM Tris-HCl using a 96-sample cell harvester (Unifilter, Packard). The filters were dried and the retained radioactivity was measured in a scintillation counter (Topcount, Packard) using a scintillation cocktail (Microscint 0, Packard). The experimental results were expressed as a percent inhibition of the control radioligand specific binding.
Binding assay of [^3H] 8-OH-DPAT (0.3 nM) with 5-HT1A receptor in human HEK-293 cell was tested by scintillation proximity assay of membrane.

Chain of serotonin transporter in rat synaptosome (P31652 whole entry): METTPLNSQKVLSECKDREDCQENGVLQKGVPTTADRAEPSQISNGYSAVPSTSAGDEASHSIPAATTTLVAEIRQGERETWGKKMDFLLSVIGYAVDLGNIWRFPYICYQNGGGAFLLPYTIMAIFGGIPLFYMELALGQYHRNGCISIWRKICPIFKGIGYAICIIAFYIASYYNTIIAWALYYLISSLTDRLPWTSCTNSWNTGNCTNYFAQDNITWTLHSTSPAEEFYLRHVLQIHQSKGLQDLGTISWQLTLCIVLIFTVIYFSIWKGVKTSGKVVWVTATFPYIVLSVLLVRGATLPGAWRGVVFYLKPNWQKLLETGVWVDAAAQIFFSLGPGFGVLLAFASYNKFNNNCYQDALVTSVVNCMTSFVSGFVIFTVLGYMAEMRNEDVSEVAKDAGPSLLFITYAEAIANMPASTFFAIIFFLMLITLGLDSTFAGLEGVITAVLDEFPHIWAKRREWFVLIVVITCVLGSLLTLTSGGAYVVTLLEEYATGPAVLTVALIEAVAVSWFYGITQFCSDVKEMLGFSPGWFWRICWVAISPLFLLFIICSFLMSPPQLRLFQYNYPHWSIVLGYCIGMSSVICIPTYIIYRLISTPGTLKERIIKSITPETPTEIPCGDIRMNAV
Chain of human 5-HT1A receptor (P08908 whole entry): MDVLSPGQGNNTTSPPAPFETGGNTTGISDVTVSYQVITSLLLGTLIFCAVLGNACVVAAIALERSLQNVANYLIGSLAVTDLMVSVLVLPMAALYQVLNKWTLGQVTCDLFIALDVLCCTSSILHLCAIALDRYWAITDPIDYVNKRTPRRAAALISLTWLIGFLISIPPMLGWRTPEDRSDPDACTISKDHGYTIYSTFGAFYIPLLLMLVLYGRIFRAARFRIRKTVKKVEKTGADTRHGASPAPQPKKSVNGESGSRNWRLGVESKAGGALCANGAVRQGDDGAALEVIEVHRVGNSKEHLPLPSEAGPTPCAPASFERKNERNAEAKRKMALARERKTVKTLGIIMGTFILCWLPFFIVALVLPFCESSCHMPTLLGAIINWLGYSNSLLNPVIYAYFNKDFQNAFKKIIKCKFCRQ

As to `O=C1CCCCN1c1ccc(N2CCN(CCCCc3c[nH]c4ccc(F)cc34)CC2)cc1` [Example 1, 1-(4-(4-(4-(5-fluoro-1H-indol-3-yl)butyl)piperazin-1-yl)phenyl)piperidin-2-one], it took 4.3 nM to reach half-maximal inhibition in test [1] (IC50). Also, the Ki (commonly the dissociation constant of the complex between target and ligand, obtained from inhibition or displacement) in test [2] was found to be 2.5 nM.

With `N#Cc1ccc2[nH]cc(CCCCN3CCN(c4ccc(N5CCCCC5=O)cc4)CC3)c2c1` [Example 2, 3-(4-(4-(4-(2-oxopiperidin-1-yl)phenyl)piperazin-1-yl)butyl)-1H-indole-5-carbonitrile], in test [1], the midpoint of inhibition, the IC50, lay at 1.8 nM. The compound further registered a Ki in test [2] of 1.9 nM.

`O=C1CCCCN1c1ccc(N2CCN(CCCc3c[nH]c4ccc(F)cc34)CC2)cc1` [Example 3, 1-(4-(4-(3-(5-fluoro-1H-indol-3-yl)propyl)piperazin-1-yl)phenyl)piperidin-2-one]: the IC50 (commonly the concentration that inhibits the measured activity by half) in test [1] was 4.2 nM. Affinity in test [2] was put at a Ki of 3.2 nM.

In test [1], `N#Cc1ccc2[nH]cc(CCCN3CCN(c4ccc(N5CCCCC5=O)cc4)CC3)c2c1` [Example 4, 3-(3-(4-(4-(2-oxopiperidin-1-yl)phenyl)piperazin-1-yl)propyl)-1H-indole-5-carbonitrile] returned an IC50 of 8.5 nM. Further, the affinity in test [2] corresponds to a Ki of 1.2 nM.

`O=C1COCCN1c1ccc(N2CCN(CCCCc3c[nH]c4ccc(F)cc34)CC2)cc1` [Example 5, 4-(4-(4-(4-(5-fluoro-1H-indol-3-yl)butyl)piperazin-1-yl)phenyl)morpholin-3-one] showed an IC50 in test [1] of 6.3 nM. In test [2], this compound had a Ki of 3.1 nM.

`N#Cc1ccc2[nH]cc(CCCCN3CCN(c4ccc(N5CCOCC5=O)cc4)CC3)c2c1` [Example 6, 3-(4-(4-(4-(3-oxomorpholino)phenyl)piperazin-1-yl)butyl)-1H-indole-5-carbonitrile] had an IC50 in test [1] of 2.2 nM. Also, the affinity in test [2] corresponds to a Ki of 2.1 nM.

As to `O=C1COCCN1c1ccc(N2CCN(CCCc3c[nH]c4ccc(F)cc34)CC2)cc1` [Example 7, 4-(4-(4-(3-(5-fluoro-1H-indol-3-yl)propyl)piperazin-1-yl)phenyl)morpholin-3-one], the IC50 in test [1] came out at 7.3 nM. For the same compound, the affinity in test [2] corresponds to a Ki of 6.4 nM.

`N#Cc1ccc2[nH]cc(CCCN3CCN(c4ccc(N5CCOCC5=O)cc4)CC3)c2c1` [Example 8, 3-(3-(4-(4-(3-oxomorpholino)phenyl)piperazin-1-yl)propyl)-1H-indole-5-carbonitrile] came in with an IC50 in test [1] of 10 nM. For the same compound, the Ki in test [2] is 3.2 nM.

With `N#Cc1ccc2[nH]cc(CCCCN3CCN(c4ccc(-n5ccccc5=O)cc4)CC3)c2c1` [Example 9, 3-(4-(4-(4-(2-oxopyridin-1(2H)-yl)phenyl)piperazin-1-yl)butyl)-1H-indole-5-carbonitrile], the IC50 in test [1] is 8 nM. The same compound returned a Ki in test [2] of 0.23 nM.

With `O=c1ccccn1-c1ccc(N2CCN(CCCCc3c[nH]c4ccc(F)cc34)CC2)cc1` [Example 10, 1-(4-(4-(4-(5-fluoro-1H-indol-3-yl)butyl)piperazin-1-yl)phenyl)pyridin-2(1H)-one], the IC50 in test [1] is 1.6 nM. The compound further displayed a Ki in test [2] of 0.19 nM.

Compound `N#Cc1ccc2[nH]cc(CCCN3CCN(c4ccc(-n5ccccc5=O)cc4)CC3)c2c1` [Example 11, 3-(3-(4-(4-(2-oxopyridin-1(2H)-yl)phenyl)piperazin-1-yl)propyl)-1H-indole-5-carbonitrile] showed an IC50 in test [1] of 0.98 nM. In test [2], this compound had a Ki of 1.2 nM.

Consider `O=c1ccccn1-c1ccc(N2CCN(CCCc3c[nH]c4ccc(F)cc34)CC2)cc1` [Example 12, 1-(4-(4-(3-(5-fluoro-1H-indol-3-yl)propyl)piperazin-1-yl)phenyl)pyridin-2(1H)-one], for which, in test [1], inhibition was half-maximal at 7.1 nM (IC50). The compound further gave a Ki in test [2] of 0.87 nM.

Regarding `N#Cc1ccc2[nH]cc(CCN3CCN(c4ccc(-n5ccccc5=O)cc4)CC3)c2c1` [Example 13, 3-(2-(4-(4-(2-oxopyridin-1(2H)-yl)phenyl)piperazin-1-yl)ethyl)-1H-indole-5-carbonitrile], in test [1], the IC50 came to 2.6 nM. Moreover, the Ki in test [2] is 54 nM.

`N#Cc1ccc2[nH]cc(CCCCCN3CCN(c4ccc(-n5ccccc5=O)cc4)CC3)c2c1` [Example 14, 3-(5-(4-(4-(2-oxopyridin-1(2H)-yl)phenyl)piperazin-1-yl)pentyl)-1H-indole-5-carbonitrile]: the IC50 in test [1] came out at 1.4 nM. The same compound displayed a Ki in test [2] of 4.1 nM.

Consider `N#Cc1ccc2[nH]cc(C(O)CCCN3CCN(c4ccc(-n5ccccc5=O)cc4)CC3)c2c1` (stereo not drawn) [Example 15, 3-(1-hydroxy-4-(4-(4-(2-oxopyridin-1(2H)-yl)phenyl)piperazin-1-yl)butyl)-1H-indole-5-carbonitrile], for which, in test [1], 330 nM corresponded to half-maximal inhibition (IC50).

As for `N#Cc1ccc2[nH]cc(C(O)CCN3CCN(c4ccc(-n5ccccc5=O)cc4)CC3)c2c1` (stereo not drawn) [Example 16, 3-(1-hydroxy-3-(4-(4-(2-oxopyridin-1(2H)-yl)phenyl)piperazin-1-yl)propyl)-1H-indole-5-carbonitrile], half-maximal inhibition in test [1] (IC50) was put at 170 nM.

`Cc1ccn(-c2ccc(N3CCN(CCCCc4c[nH]c5ccc(C#N)cc45)CC3)cc2)c(=O)c1` [Example 17, 3-(4-(4-(4-(4-methyl-2-oxopyridin-1(2H)-yl)phenyl)piperazin-1-yl)butyl)-1H-indole-5-carbonitrile] returned an IC50 in test [1] of 1.7 nM. The compound further gave a Ki in test [2] of 0.48 nM.

For the compound `Cc1ccn(-c2ccc(N3CCN(CCCc4c[nH]c5ccc(C#N)cc45)CC3)cc2)c(=O)c1` [Example 18, 3-(3-(4-(4-(4-methyl-2-oxopyridin-1(2H)-yl)phenyl)piperazin-1-yl)propyl)-1H-indole-5-carbonitrile], the 50% inhibitory concentration (IC50) in test [1] was found to be 7.5 nM. In test [2], this compound had an inhibition constant Ki of 0.89 nM.

In test [1], `Cc1ccn(-c2ccc(N3CCN(CCc4c[nH]c5ccc(C#N)cc45)CC3)cc2)c(=O)c1` [Example 19, 3-(2-(4-(4-(4-methyl-2-oxopyridin-1(2H)-yl)phenyl)piperazin-1-yl)ethyl)-1H-indole-5-carbonitrile] registered an IC50 of 2 nM. For the same compound, the affinity in test [2] corresponds to a Ki of 33 nM.

In the case of `Cc1ccn(-c2ccc(N3CCN(CCCCCc4c[nH]c5ccc(C#N)cc45)CC3)cc2)c(=O)c1` [Example 20, 3-(5-(4-(4-(4-methyl-2-oxopyridin-1(2H)-yl)phenyl)piperazin-1-yl)pentyl)-1H-indole-5-carbonitrile], in test [1], it took 3.6 nM to reach half-maximal inhibition (IC50). The same compound came in with a Ki in test [2] of 4.7 nM.

The compound `COc1ccn(-c2ccc(N3CCN(CCCCc4c[nH]c5ccc(C#N)cc45)CC3)cc2)c(=O)c1` [Example 21, 3-(4-(4-(4-(4-methoxy-2-oxopyridin-1(2H)-yl)phenyl)piperazin-1-yl)butyl)-1H-indole-5-carbonitrile] displayed an IC50 in test [1] of 7.4 nM. Besides, the Ki in test [2] was 1.2 nM.

Take `COc1ccn(-c2ccc(N3CCN(CCCc4c[nH]c5ccc(C#N)cc45)CC3)cc2)c(=O)c1` [Example 22, 3-(3-(4-(4-(4-methoxy-2-oxopyridin-1(2H)-yl)phenyl)piperazin-1-yl)propyl)-1H-indole-5-carbonitrile]: half-maximal inhibition in test [1] (IC50) required 1.8 nM. In addition, affinity in test [2] was put at a Ki of 0.61 nM.

For the compound `COc1ccn(-c2ccc(N3CCN(CCc4c[nH]c5ccc(C#N)cc45)CC3)cc2)c(=O)c1` [Example 23, 3-(2-(4-(4-(4-methoxy-2-oxopyridin-1(2H)-yl)phenyl)piperazin-1-yl)ethyl)-1H-indole-5-carbonitrile], it took 12 nM to reach half-maximal inhibition in test [1] (IC50).

Turning to `COc1ccn(-c2ccc(N3CCN(CCCCCc4c[nH]c5ccc(C#N)cc45)CC3)cc2)c(=O)c1` [Example 24, 3-(5-(4-(4-(4-methoxy-2-oxopyridin-1(2H)-yl)phenyl)piperazin-1-yl)pentyl)-1H-indole-5-carbonitrile], 5.5 nM corresponded to half-maximal inhibition in test [1] (IC50). In test [2], this compound yielded a Ki of 12 nM.

`N#Cc1ccc2[nH]cc(CCCCN3CCN(c4ccc(-n5cc(F)cc(F)c5=O)cc4)CC3)c2c1` [Example 25, 3-(4-(4-(4-(3,5-difluoro-2-oxopyridin-1(2H)-yl)phenyl)piperazin-1-yl)butyl)-1H-indole-5-carbonitrile] displayed an IC50 in test [1] of 1.4 nM. Besides, affinity in test [2] was put at a Ki of 0.18 nM.

In test [1], `N#Cc1ccc2[nH]cc(CCCCN3CCN(c4ccc(-n5ccc6ccccc6c5=O)cc4)CC3)c2c1` [Example 29, 3-(4-(4-(4-(1-oxoisoquinolin-2(1H)-yl)phenyl)piperazin-1-yl)butyl)-1H-indole-5-carbonitrile] returned an IC50 of 10 nM. That is a double-digit nanomolar value.
